Key:
caspase-9 = assay: Activation of caspases in T84 colon carcinoma cells; assay type: cell-based, human; details: 10 hours
Protocol: (§1) Activities of caspase-3 and caspase-9 were measured using […] assay kits (BioVision, CA). The procedure used was essentially the same as described in the manufacturer's instruction. Briefly, 7-day-old monolayers of T 84 cells in 100 mm dishes were treated with either vehicle (as control) or N,N,-diethyl-8,8-dipropyl-2-azaspiro[4,5]decane-2-propanamine dimaleate (Compound 1) at the indicated respective concentrations for 10 hours. After the treatment, cells were washed with PBS and the cell extracts were prepared by resuspending cells in 200 μl (˜10^8 cells) of lysis buffer provided in the kit. Cell debris was removed by centrifugation at 10,000×g for 30 min. Supernatants (50-100 μg of protein) were pre-incubated with 10 mM dithiothreitol, 50 mM HEPES, 10% sucrose, 0.1% CHAPS (pH 7.5) and the reaction was started with the addition of 100 μM of the appropriate substrate (DEVD-pNA for caspase-3 and LEHD-pNA for caspase-9). The assay plates (96-well) were incubated at 37° C. for 2 hours, and the yellow color resulting from the release of pNA was measured at 405 nm using an ELISA reader. Samples were run in triplicate and results were expressed as an average of three determinations.

caspase-3 = assay: as above; assay type: cell-based, human; details: 10 hours
Protocol: as §1

HUVEC cells = assay: Induction of apoptosis, DNA fragmentation analysis; assay type: cell-based, human; details: 16 hours
Protocol: (§2) T84, CaCo-2 and HUVEC cells, respectively, were grown in 100 mm dishes for 7-9 days, culture media for HUVEC was EGM-2 (Clonetics, BioWhitaker Co.), until they reached semi-confluency. Cell monolayers were then treated for 12 hours (CaCo-2 and T84) and 16 hours (HUVEC), respectively, at the indicated concentrations of N,N,-diethyl-8,8-dipropyl-2-azaspiro[4,5]decane-2-propanamine dimaleate (Compound 1) in culture media. Cells were collected by trypsinization and the apoptotic DNA was isolated from these cells following the instructions of the DNA fragmentation analysis kit (Boehringer Mannheim Corp., Indianapolis, Ind.). The apoptotic DNA was evaluated using 1.5% agarose gel electrophoresis followed by staining with ethidium bromide. M denotes the lane containing molecular weight markers of DNA.

T84 cells = assay: Induction of apoptosis, DNA fragmentation analysis; assay type: cell-based, human; details: 12 hours
Protocol: as §2

CaCo-2 cells = assay: Induction of apoptosis, DNA fragmentation analysis; assay type: cell-based, human; details: 12 hours
Protocol: as §2

[1] = test system: chorioallantoic membrane (CAM); assay: Anti-angiogenesis CAM assay; assay type: in vivo, White Leghorn eggs; details: ten eggs, 48 hours
Protocol: The dosing was effected by pipetting 40 μl of the indicated solution onto a 13 mm round Thermanox® coverslip and allowing it to air dry. After the material appeared dry, the coverslip was placed onto the chorioallantoic membrane (CAM) of each egg insuring contact of the dried test article with the CAM. After dosing, the eggs were returned to the incubator for approximately 48 hours. Following the 48 hour exposure period, the eggs were removed from the incubator, observed for viability, and the exposed area under the coverslip was examined for loss of vasculature.

HS 578T = assay: NCI SRB tumor cell growth assay, Breast Cancer; assay type: cell-based
Protocol: (§3) An in vitro assay which tested the ability of N,N,-diethyl-8,8-dipropyl-2-azaspiro[4,5]decane-2-propanamine dimaleate (Compound 1) to inhibit the growth of known cancer cell lines was performed by the National Cancer Institute in accordance with standard procedures. See: Lin, Z. X., Hoult, J. R., and Raman, A. Sulphorhodamine B assay for measuring proliferation of a pigmented melanocyte cell line and its application to the evaluation of crude drugs used in the treatment of vitiligo. J Ethnopharmacol. 66: 141-150, 1999. Briefly, selected tumor cell lines were cultured in media containing five different concentrations of Compound 1. After 48 hours of continuous exposure, a sulforhodamine B (SRB) assay was used to estimate cell viability or growth via optical measurements.
(§4) From the measurements, the following values were determined: 1) the concentration of Compound 1 at which a tumor cell growth inhibition of 50% (relative to control) occurs (GI50), 2) the concentration of Compound 1 at which no growth occurs (total growth inhibition, TGI), and 3) the concentration of Compound 1 at which the […] (LC 50). […] FIG. 6 illustrates, graphically, tumor cell growth as a function of Compound 1 concentration of the scanned tumor cell lines.

Various Tumor Cell Lines = assay: NCI SRB tumor cell growth assay, summary over all cell lines; assay type: cell-based
Protocol: as §3, §4

Structure (SMILES) | caspase-9 activity (caspase-9) | caspase-3 activity (caspase-3) | DNA laddering (apoptosis) (HUVEC cells) | DNA laddering (apoptosis) (T84 cells) | DNA laddering (apoptosis) (CaCo-2 cells) | Dead Eggs ([1]; Dose Per Egg 25 μg) | Dead Eggs ([1]; Dose Per Egg 50 μg) | Dead Eggs ([1]; Dose Per Egg 100 μg) | Dead Eggs ([1]; Dose Per Egg 200 μg) | Dead Eggs ([1]; Dose Per Egg 400 μg) | Log10 TGI (HS 578T) | Log10 LC50, MG_MID (Various Tumor Cell Lines)
CCCC1(CCC)CCC2(CCN(CCCN(CC)CC)C2)CC1.O=C(O)/C=C\C(=O)O.O=C(O)/C=C\C(=O)O [Compound 1, N,N,-diethyl-8,8-dipropyl-2-azaspiro[4,5]decane-2-propanamine dimaleate] | activation | activation | formation of DNA laddering in a dose-dependent manner | formation of DNA laddering in a dose-dependent manner | formation of DNA laddering in a dose-dependent manner | 0 | 0 | 4 | 3 | 7 | −5.40 | −5.06
O=C1CCC(N2C(=O)c3ccccc3C2=O)C(=O)N1 (stereo not shown) [Thalidomide, reference compound] |  |  |  |  |  |  |  | 0 |  |  |  | 
